Test results: ChEMBL document CHEMBL5380809, “Discovery of Novel N-Hydroxy-1,2,4-oxadiazole-5-formamides as ASM Direct Inhibitors for the Treatment of Atherosclerosis” (J Med Chem, 2023)
Calls of active or inactive are those of the source. No cut-off for these calls is given here.

What was measured:
[1] = biological target: T1, Sphingomyelin phosphodiesterase (Homo sapiens, UniProt P17405); test: Inhibition of recombinant human aSMase (62 to 628 residues) using HMU-PC as substrate incubated for 2 hrs by fluorescence based assay
T1 sequence (P17405 whole entry): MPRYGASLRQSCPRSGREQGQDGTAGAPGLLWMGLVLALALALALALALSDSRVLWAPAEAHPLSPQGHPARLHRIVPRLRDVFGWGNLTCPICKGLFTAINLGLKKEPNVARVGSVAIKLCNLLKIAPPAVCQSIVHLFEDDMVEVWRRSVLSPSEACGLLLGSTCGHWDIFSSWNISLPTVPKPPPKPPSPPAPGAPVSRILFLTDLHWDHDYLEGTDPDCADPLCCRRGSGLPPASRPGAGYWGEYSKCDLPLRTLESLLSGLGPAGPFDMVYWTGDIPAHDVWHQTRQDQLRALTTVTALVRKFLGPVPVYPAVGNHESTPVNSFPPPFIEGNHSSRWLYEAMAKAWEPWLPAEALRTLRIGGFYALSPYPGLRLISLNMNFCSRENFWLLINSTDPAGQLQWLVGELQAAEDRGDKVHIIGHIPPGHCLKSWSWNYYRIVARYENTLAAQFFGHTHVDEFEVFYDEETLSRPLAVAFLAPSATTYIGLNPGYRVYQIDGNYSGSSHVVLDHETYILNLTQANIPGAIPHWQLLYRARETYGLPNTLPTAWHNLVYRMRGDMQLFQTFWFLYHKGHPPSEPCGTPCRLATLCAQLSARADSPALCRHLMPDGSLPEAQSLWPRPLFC

[2] = AUC (0 to t) in ICR mouse at 1 mg/kg, iv measured for 0.083 to 24 hrs by LC-MS/MS analysis; assay type: ADME, organism-based; set-up: time 0.083-24 hrs, dose 1 mg/kg, route iv; conditions: in vivo
[3] = In vivo inhibition of aSMase in C57BL/6 mouse assessed as decrease in liver aSMase level at 40 mg/kg, ip bid for 1 week by ELISA method relative to control; assay type: functional; set-up: scale not given: the % may be the effect or the level left; conditions: time 1 weeks
Mus musculus [4] = test: In vivo inhibition of aSMase in C57BL/6 mouse assessed as decrease in liver sphingomyelin level at 6 to 40 mg/kg, ip bid for 1 week by ELISA method; assay type: functional, organism-based; conditions: dose 6-40 mg/kg, time 1.0 weeks
Mus musculus [5] = test: Antiatherosclerotic activity in high-fat diet fed ApoE-/- mouse assessed as reduction in lipid plaque area administered intraperitoneally twice daily measured after 8 weeks by oil red O staining based analysis; assay type: functional, organism-based; conditions: dose 12-40 mg/kg, route ip
Mus musculus [6] = test: Antiatherosclerotic activity in high-fat diet fed ApoE-/- mouse assessed as reduction in plasma total triacylglycerol level at 12 to 40 mg/kg, ip bid measured after 8 weeks; assay type: functional, organism-based; conditions: dose 12-40 mg/kg
Mus musculus [7] = test: Antiatherosclerotic activity in high-fat diet fed ApoE-/- mouse assessed as reduction in plasma LDL-C level at 12 to 40 mg/kg, ip bid measured after 8 weeks; assay type: functional, organism-based; conditions: dose 12-40 mg/kg
Mus musculus [8] = test: Antiatherosclerotic activity in high-fat diet fed ApoE-/- mouse assessed as reduction in plasma Ox-LDL-C level at 40 mg/kg, ip bid measured after 8 weeks; assay type: functional, organism-based
HUVEC [9] = test: Antiinflammatory activity against HUVEC cells assessed as decrease in LPS-induced IL-6 level measured after 22 hrs by ELISA method; assay type: functional, cell-based; conditions: Homo sapiens, dose 1-5 µM
HUVEC [10] = test: Downregulation of extracellular ceramide level in HUVEC cells upto 5 uM measured after 22 hrs by ELISA method; assay type: functional, cell-based; conditions: Homo sapiens
HUVEC [11] = test: Downregulation of extracellular ceramide level in Ox-LDL-induced HUVEC cells upto 5 uM measured after 22 hrs by ELISA method; assay type: functional, cell-based; conditions: Homo sapiens
HUVEC [12] = test: Upregulation of intracellular sphingomyelin level in HUVEC cells measured after 22 hrs by ELISA method; assay type: functional, cell-based; conditions: Homo sapiens, dose <= 5.0 µM

With `O=C(NO)c1nc(-c2ccc(COc3ccc(Br)cc3)cc2)no1` the IC50 [1] was 1500 nM, the AUC(0-t) [2] was 227 ng·h/mL and the Activity [3] was 22%. For the same molecule, the Activity (Mus musculus [4]) was “Active”, the Activity (Mus musculus [5]) was “Dose-Dependent Effect” and the Activity (Mus musculus [6]) was “inactive”. For the same molecule, the Activity (Mus musculus [7]) was “Active”, the Activity (Mus musculus [8]) was “Active” and the Activity (HUVEC [9]) was “Dose-Dependent Effect”. The Activity (HUVEC [10]) was “Active”, the Activity (HUVEC [11]) was “Active” and the Activity (HUVEC [12]) was “Dose-Dependent Effect”.
